# Publication PMC6688628, “N-Substituted Pyrrole Derivative 12m Inhibits HIV-1 Entry by Targeting Gp41 of HIV-1 Envelope Glycoprotein” (Frontiers in Pharmacology, 2019)
# Columns and labels:
# [1] = test system: primary HIV-1 strains, including the X4, R5, and X4R5 strains; assay: Anti-HIV-1 activity, panel of primary HIV-1 strains; type: cell-based; conditions: Human immunodeficiency virus 1; range over X4, R5 and X4R5 primary strains; read-out: EC50 values against all tested representative primary HIV-1 strains
# Protocol: The HIV-1 replication-inhibiting activity of compounds was determined as previously described ([Li et al., 2013]). Briefly, 1 × 10^4 TZM-bl or MT-2 cells were infected with primary HIV-1 strains or T20-resistant HIV-1 strains (100 TCID50) in 200 µl of RPMI-1640 medium containing 10% FBS in the presence or absence of compounds at graded concentrations for 12 h. The culture medium was replaced with fresh medium without the compounds. After culture for an additional 48 h, supernatants or cells were collected from each well. For the primary HIV-1 strains, the cells were treated using a luciferase kit. Briefly, the cells were lysed with the lysis reagent and were transferred into a 96-well flat-bottom luminometer plate after three washes with phosphate-buffered saline (PBS) (Costar Corning Inc., Corning, NY), followed by addition of the luciferase substrate included in the luciferase kit (Promega Corp., Madison, WI). The luciferase activity was measured immediately by an Ultra 384 microplate reader (Tecan, Research Triangle Park, NC). T20 was used as a positive control. For the T20-resistant HIV-1 strains, 100 µl of culture supernatant was mixed with 100 µl of 5% Triton X-100. […] Absorbance at 450 nm was recorded in an ELISA reader (Ultra 384, Tecan). EC50 values were calculated using the computer program CalcuSyn ([Chou and Talalay, 1984]).
# [2] = XTT assay, TZM-bl cells; type: cell-based; conditions: human
# Protocol: (§1) The in vitro cell viability of NSPD-12m on HIV-1 target cells (U87-CD4-CXCR4, U87-CD4-CCR5, TZM-bl, and MT-2 cells) and HIV effector cells (CHO-WT cells) was analyzed by an XTT colorimetric assay. Briefly, 100 µl of 5 × 10^5/ml cells was mixed and incubated with 100 µl of NSPD-12m at graded concentrations at 37°C for 3 days. Then, 50 µl of XTT solution (1 mg/ml) containing 0.02 µM of phenazinemethosulphate (PMS) was added to each well, and the cells were incubated at 37°C for another 4 h. The absorbance at 450 nm was measured with an ELISA reader. The 50% cytotoxicity concentrations (CC50) were calculated using the CalcuSyn software ([Chou and Talalay, 1984]).
# [3] = test system: HIV-1HXB2 (X4 strain) Env pseudotyped virus; assay: microbe, parasite or virus in culture; type: cell-based; conditions: Human immunodeficiency virus 1, single-cycle infection, luciferase
# [4] = test system: HIV-1JR-FL Env mutant K574A pseudovirus; type: cell-based; conditions: compared with wild-type HIV-1JR-FL pseudovirus
# [5] = XTT assay, CHO-WT cells; type: cell-based; conditions: Chinese hamster
# Protocol: as §1
# [6] = test system: HIV-1 R5 virus; assay: Cell-cell HIV-1 R5 transmission, MT-2 to CEMx174 5.25 M7 cells; type: cell-based; conditions: Human immunodeficiency virus 1; infected MT-2 to CEMx174 5.25 M7 cells; luciferase
# Protocol: (§2) Inhibition of fusion between MT-2 cells infected by HIV-1 strains (X4 and R5 viruses) with CEMx174 5.25 M7 cells, which express CD4 and both coreceptors, CXCR4 and CCR5, was determined by a luciferase assay. Briefly, MT-2 cells were infected with the corresponding HIV-1 strains for 7 days. The infected MT-2 cells were washed three times and resuspended in culture medium to 2 × 10^5/ml. Then, 50 μl of a compound at graded concentrations in triplicate was incubated with equal volumes of HIV-1-infected MT-2 cells at 37°C for 30 min. Next, 100 μl of CEMx174 5.25 M7 cells (4 × 10^5/ml) was added, and the cells were incubated at 37°C for 3 days. The cells were collected, washed, and lysed with the lysing reagent included in the luciferase kit (Promega, Corp., Madison, Wis). Aliquots of cell lysates were transferred to 96-well flat-bottom luminometer plates (Costar), followed by the addition of luciferase substrate (Promega). Luciferase activity was measured using an Ultra 384 luminometer. ADS-J1 was used as a positive control for all cell–cell fusion assays.
# [7] = test system: HIV-1 X4 virus; assay: Cell-cell HIV-1 X4 transmission, MT-2 to CEMx174 5.25 M7 cells; type: cell-based; conditions: Human immunodeficiency virus 1; infected MT-2 to CEMx174 5.25 M7 cells; luciferase
# Protocol: as §2
# [8] = test system: HIV-1 NL4-3D36G; type: cell-based; conditions: T20-sensitive parent strain, p24 ELISA, mean ± SD
# [9] = test system: HIV-1 NL4-3(36G)N42T,N43K; conditions: T20-resistant NL4-3(36G)N42T,N43K; p24 ELISA; mean ± SD
# [10] = test system: HIV-1 NL4-3(36G)V38E,N42S; conditions: T20-resistant NL4-3(36G)V38E,N42S; p24 ELISA; mean ± SD
# [11] = test system: HIV-1 NL4-3(36G)V38A,N42D; conditions: T20-resistant NL4-3(36G)V38A,N42D; p24 ELISA; mean ± SD
# [12] = test system: HIV-1JR-FL (R5 strain) Env pseudotyped virus; assay: microbe, parasite or virus in culture; type: cell-based; conditions: Human immunodeficiency virus 1, single-cycle infection, luciferase
# [13] = test system: VSV-G pseudotyped virus; type: cell-based, vesicular stomatitis virus
compound,measurement,setting,value
Cc1cc(/C=C2\SC(=S)N(Cc3ccccc3C(F)(F)F)C2=O)c(C)n1-c1ccc(O)c(C(=O)O)c1 [NSPD-12m],EC50,[1],2.03 to 6.85 µM
same,CC50 at 3 days,[2],79 ± 11.4 µM
same,CC90 at 3 days,[2],118 ± 18 µM
same,EC50,[3],~23.1 µM
same,inhibitory activity against K574A mutant pseudovirus,[4],significant loss
same,CC50 at 3 days,[5],60 ± 13.2 µM
same,CC90 at 3 days,[5],74.6 ± 13.8 µM
same,EC50,[6],1420 ± 300 nM
same,EC50,[7],3.64 ± 0.34 µM
same,IC50,[8],10.8 ± 1.67 µM
same,IC90,[8],55.4 ± 16.9 µM
same,IC50,[9],4.23 ± 1.92 µM
same,IC90,[9],29.7 ± 2.28 µM
same,IC50,[10],5.26 ± 0.762 µM
same,IC90,[10],19.6 ± 0.552 µM
same,IC50,[11],22.4 ± 2.84 µM
same,IC90,[11],32.5 ± 4.95 µM
same,EC50,[12],~14 µM
same,inhibition of VSV-G pseudovirus infection,[13],could not be strongly inhibited
